Tested on in one data set: not listed separately
The data set can be described thus: Human plasma protein binding. It is filed as in vitro ADME.
Details: not given
The method, then:
An aliquot of 200 μL of human plasma containing test compound was spiked into donor well (red chamber) of the insert. 350 μL of PBS was spiked into receiver well (white chamber) of the insert.
The samples were matrix equilibrated with opposite matrix (25 μL of plasma/buffer sample was matched with 25 μL of blank buffer/plasma). Matrix matched samples were precipitated with 200 μL of acetonitrile containing internal standard. Samples were vortexed at 1000 rpm for 5 min and centrifuged at 4000 rpm for 10 min. Supernatant was separated, diluted 2 fold with water and analysed in LC-MS/MS. (Table 2).
Turning to `CCCc1nn(C)c2c(=O)[nH]c(-c3cc(S(=O)(=O)N4CCC(C(O)C(CO[N+](=O)[O-])CO[N+](=O)[O-])CC4)ccc3OCC)nc12` (racemic) [Compound 1i, 2-((1-((4-ethoxy-3-(1-methyl-7-oxo-3-propyl-6,7-dihydro-1H-pyrazolo[4,3-d]pyrimidin-5-yl)phenyl)sulfonyl)piperidin-4-yl)(hydroxy)methyl)propane-1,3-diyl dinitrate], the “% Bound in human plasma” value was determined as 99.85%.

Still in this data set, the particulars now being: human, read-out: % Bound in human plasma (converted).
On to `CCCc1nn(C)c2c(=O)[nH]c(-c3cc(S(=O)(=O)N4CCN(C)CC4)ccc3OCC)nc12` [Sildenafil, 5-(2-ethoxy-5-((4-methylpiperazin-1-yl)sulfonyl)phenyl)-1-methyl-3-propyl-1,6-dihydro-7H-pyrazolo[4,3-d]pyrimidin-7-one, reference compound], for which the fraction unbound was 0.0421.

The data set is the same for the next values; noted with them: human, read-out: % Unbound in human plasma.
Take `CCCc1nn(C)c2c(=O)[nH]c(-c3cc(S(=O)(=O)N4CCN(C)CC4)ccc3OCC)nc12` [Sildenafil, 5-(2-ethoxy-5-((4-methylpiperazin-1-yl)sulfonyl)phenyl)-1-methyl-3-propyl-1,6-dihydro-7H-pyrazolo[4,3-d]pyrimidin-7-one, reference compound]: the fraction unbound was 0.0419. With `CCCc1nn(C)c2c(=O)[nH]c(-c3cc(S(=O)(=O)N4CCC(C(O)C(CO[N+](=O)[O-])CO[N+](=O)[O-])CC4)ccc3OCC)nc12` (racemic) [Compound 1i, 2-((1-((4-ethoxy-3-(1-methyl-7-oxo-3-propyl-6,7-dihydro-1H-pyrazolo[4,3-d]pyrimidin-5-yl)phenyl)sulfonyl)piperidin-4-yl)(hydroxy)methyl)propane-1,3-diyl dinitrate], the fraction unbound was 0.0015.

In another data set the target is T1, recombinant human (rh) PDE5A (Homo sapiens, UniProt O76074).
T1 construct: GST; purchased SIGMA E9034
The data set can be described thus: Phosphodiesterase-5 activity assay (radiometric SPA). Type of data set: biochemical. Conditions: rhPDE5A1, 0.5 μM cGMP, 20 min at 37° C.
`CCCc1nn(C)c2c(=O)[nH]c(-c3cc(S(=O)(=O)N4CCC([C@@H](CO[N+](=O)[O-])O[N+](=O)[O-])CC4)ccc3OCC)nc12` [Compound 1b, (S)-1-(1-((4-ethoxy-3-(1-methyl-7-oxo-3-propyl-6,7-dihydro-1H-pyrazolo[4,3-d]pyrimidin-5-yl)phenyl)sulfonyl)piperidin-4-yl)ethane-1,2-diyl dinitrate]: the IC50 turned out to be 4.9 nM.

As for `CCCc1nn(C)c2c(=O)[nH]c(-c3cc(S(=O)(=O)N4CCC(C(O)C(CO[N+](=O)[O-])CO[N+](=O)[O-])CC4)ccc3OCC)nc12` (racemic) [Compound 1i, 2-((1-((4-ethoxy-3-(1-methyl-7-oxo-3-propyl-6,7-dihydro-1H-pyrazolo[4,3-d]pyrimidin-5-yl)phenyl)sulfonyl)piperidin-4-yl)(hydroxy)methyl)propane-1,3-diyl dinitrate], the IC50 was 4.2 nM. The same measure, in the same setting: the same measure for `CCCc1nn(C)c2c(=O)[nH]c(-c3cc(S(=O)(=O)N4CCC(C(O)CCO[N+](=O)[O-])CC4)ccc3OCC)nc12` (single isomer, unassigned) [Compound 1f, 3-(1-((4-ethoxy-3-(1-methyl-7-oxo-3-propyl-6,7-dihydro-1H-pyrazolo[4,3-d]pyrimidin-5-yl)phenyl)sulfonyl)piperidin-4-yl)-3-hydroxypropyl nitrate]: 3.8 nM. Still for that read-out and setting: the same measure for `CCCc1nn(C)c2c(=O)[nH]c(-c3cc(S(=O)(=O)N4CCC(C(O)(CCO)CCO)CC4)ccc3OCC)nc12` [Compound 15, 5-(2-ethoxy-5-((4-(1,3,5-trihydroxypentan-3-yl)piperidin-1-yl)sulfonyl)phenyl)-1-methyl-3-propyl-1,6-dihydro-7H-pyrazolo[4,3-d]pyrimidin-7-one]: 2 nM. Regarding `CCCc1nn(C)c2c(=O)[nH]c(-c3cc(S(=O)(=O)N4CCC(C(O)(CCO[N+](=O)[O-])CCO[N+](=O)[O-])CC4)ccc3OCC)nc12` [Compound 1h, 3-(1-((4-ethoxy-3-(1-methyl-7-oxo-3-propyl-6,7-dihydro-1H-pyrazolo[4,3-d]pyrimidin-5-yl)phenyl)sulfonyl)piperidin-4-yl)-3-hydroxypentane-1,5-diyl dinitrate], the concentration for half-maximal inhibition (IC50) was found to be 4.7 nM. The same measure, in the same setting: with `CCCc1nc(C)c2c(=O)[nH]c(-c3cc(S(=O)(=O)N4CCC(C(CO)O[N+](=O)[O-])CC4)ccc3OCC)nn12` (single isomer, unassigned) [Compound 2k, 1-(1-((4-ethoxy-3-(5-methyl-4-oxo-7-propyl-3,4-dihydroimidazo[5,1-f][1,2,4]triazin-2-yl)phenyl)sulfonyl)piperidin-4-yl)-2-hydroxyethyl nitrate] the figure was 0.26 nM; with `CCCc1nn(C)c2c(=O)[nH]c(-c3cc(S(=O)(=O)N4CCC(C(O)CCO)CC4)ccc3OCC)nc12` (single isomer, unassigned) [Compound 14-2, 5-(5-((4-(1,3-dihydroxypropyl)piperidin-1-yl)sulfonyl)-2-ethoxyphenyl)-1-methyl-3-propyl-1,6-dihydro-7H-pyrazolo[4,3-d]pyrimidin-7-one], 3.9 nM.

Take `CCCc1nn(C)c2c(=O)[nH]c(-c3cc(S(=O)(=O)N4CCC(C(O)(CCO)CCO[N+](=O)[O-])CC4)ccc3OCC)nc12` (centres unmarked) [Compound 1g, 3-(1-((4-ethoxy-3-(1-methyl-7-oxo-3-propyl-6,7-dihydro-1H-pyrazolo[4,3-d]pyrimidin-5-yl)phenyl)sulfonyl)piperidin-4-yl)-3,5-dihydroxypentyl nitrate]: the half-maximal inhibitory concentration (IC50) is 4.8 nM. On the same count and under the same terms, the same measure for `CCCc1nn(C)c2c(=O)[nH]c(-c3cc(S(=O)(=O)N4CCC(C(CO)O[N+](=O)[O-])CC4)ccc3OCC)nc12` (single isomer, unassigned) [Compound 1k, 1-(1-((4-ethoxy-3-(1-methyl-7-oxo-3-propyl-6,7-dihydro-1H-pyrazolo[4,3-d]pyrimidin-5-yl)phenyl)sulfonyl)piperidin-4-yl)-2-hydroxyethyl nitrate]: 0.55 nM; for `CCCc1nn(C)c2c(=O)[nH]c(-c3cc(S(=O)(=O)N4CCC(C(CO)O[N+](=O)[O-])CC4)ccc3OCC)nc12` (single isomer, unassigned) [Compound 1l, 1-(1-((4-ethoxy-3-(1-methyl-7-oxo-3-propyl-6,7-dihydro-1H-pyrazolo[4,3-d]pyrimidin-5-yl)phenyl)sulfonyl)piperidin-4-yl)-2-hydroxyethyl nitrate]: 0.69 nM.

For the compound `CCCc1nn(C)c2c(=O)[nH]c(-c3cc(S(=O)(=O)N4CCC([C@H](O)CO[N+](=O)[O-])CC4)ccc3OCC)nc12` [Compound 1d, (S)-2-(1-((4-ethoxy-3-(1-methyl-7-oxo-3-propyl-6,7-dihydro-1H-pyrazolo[4,3-d]pyrimidin-5-yl)phenyl)sulfonyl)piperidin-4-yl)-2-hydroxyethyl nitrate], the IC50 is 1.2 nM. The same measure, in the same setting: the same measure for `CCCc1nn(C)c2c(=O)[nH]c(-c3cc(S(=O)(=O)N4CCC(C(O)CCO[N+](=O)[O-])CC4)ccc3OCC)nc12` (single isomer, unassigned) [Compound 1e, 3-(1-((4-ethoxy-3-(1-methyl-7-oxo-3-propyl-6,7-dihydro-1H-pyrazolo[4,3-d]pyrimidin-5-yl)phenyl)sulfonyl)piperidin-4-yl)-3-hydroxypropyl nitrate]: 4.6 nM; for `CCCc1nc(C)c2c(=O)[nH]c(-c3cc(S(=O)(=O)N4CCC(C(CO)O[N+](=O)[O-])CC4)ccc3OCC)nn12` (single isomer, unassigned) [Compound 2l, 1-(1-((4-ethoxy-3-(5-methyl-4-oxo-7-propyl-3,4-dihydroimidazo[5,1-f][1,2,4]triazin-2-yl)phenyl)sulfonyl)piperidin-4-yl)-2-hydroxyethyl nitrate]: 0.17 nM; for `CCCc1nc(C)c2c(=O)[nH]c(-c3cc(S(=O)(=O)N4CCC([C@H](O)CO)CC4)ccc3OCC)nn12` [Compound 26, (S)-2-(5-((4-(1,2-dihydroxyethyl)piperidin-1-yl)sulfonyl)-2-ethoxyphenyl)-5-methyl-7-propyl imidazo[5,1-f][1,2,4]triazin-4(3H)-one]: 0.07 nM.

As for `CCCc1nc(C)c2c(=O)[nH]c(-c3cc(S(=O)(=O)N4CCC(C(O)C(CO)CO)CC4)ccc3OCC)nn12` (centres unmarked) [Compound 29, 2-(5-((4-(1,3-dihydroxy-2-(hydroxymethyl)propyl)piperidin-1-yl)sulfonyl)-2-ethoxyphenyl)-5-methyl-7-propylimidazo[5,1-f][1,2,4]triazin-4(3H)-one], the concentration for half-maximal inhibition (IC50) turned out to be 0.37 nM. On the same count and under the same terms, the same measure for `CCCc1nn(C)c2c(=O)[nH]c(-c3cc(S(=O)(=O)N4CCC(C(O)CCO)CC4)ccc3OCC)nc12` (single isomer, unassigned) [Compound 14-1, 5-(5-((4-(1,3-dihydroxypropyl)piperidin-1-yl)sulfonyl)-2-ethoxyphenyl)-1-methyl-3-propyl-1,6-dihydro-7H-pyrazolo[4,3-d]pyrimidin-7-one]: 4.4 nM; for `CCCc1nc(C)c2c(=O)[nH]c(-c3cc(S(=O)(=O)N4CCC(C(O)CCO[N+](=O)[O-])CC4)ccc3OCC)nn12` (single isomer, unassigned) [Compound 2e, 3-(1-((4-ethoxy-3-(5-methyl-4-oxo-7-propyl-3,4-dihydroimidazo[5,1-f][1,2,4]triazin-2-yl)phenyl)sulfonyl)piperidin-4-yl)-3-hydroxypropyl nitrate]: 0.2 nM. On the same count and under the same terms, with `CCCc1nc(C)c2c(=O)[nH]c(-c3cc(S(=O)(=O)N4CCC([C@@H](CO[N+](=O)[O-])O[N+](=O)[O-])CC4)ccc3OCC)nn12` [Compound 2b, (S)-1-(1-((4-ethoxy-3-(5-methyl-4-oxo-7-propyl-3,4-dihydroimidazo[5,1-f][1,2,4]triazin-2-yl)phenyl)sulfonyl)piperidin-4-yl)ethane-1,2-diyl dinitrate] the figure was 0.28 nM; with `CCCc1nc(C)c2c(=O)[nH]c(-c3cc(S(=O)(=O)N4CCC(C(O)CCO)CC4)ccc3OCC)nn12` (racemic) [Compound 27, 2-(5-((4-(1,3-dihydroxypropyl)piperidin-1-yl)sulfonyl)-2-ethoxyphenyl)-5-methyl-7-propylimidazo[5,1-f][1,2,4]triazin-4(3H)-one], 0.4 nM.

As to `CCCc1nn(C)c2c(=O)[nH]c(-c3cc(S(=O)(=O)N4CCC([C@H](O)CO)CC4)ccc3OCC)nc12` [Compound 6, (S)-5-(5-((4-(1,2-dihydroxyethyl)piperidin-1-yl)sulfonyl)-2-ethoxyphenyl)-1-methyl-3-propyl-1,6-dihydro-7H-pyrazolo[4,3-d]pyrimidin-7-one], the IC50 worked out at 1.6 nM. “4-ethoxy-3-(5-methyl-4-oxo-7-propyl-3,4-dihydroimidazo[5,1-f][1,2,4]triazin-2-yl)benzenesulfonyl chloride [Compound 24]”: the IC50 is 0.4 nM. The same measure, in the same setting: the same measure for `CCCc1nc(C)c2c(=O)[nH]c(-c3cc(S(=O)(=O)N4CCC(C(O)CCO[N+](=O)[O-])CC4)ccc3OCC)nn12` (single isomer, unassigned) [Compound 2f, 3-(1-((4-ethoxy-3-(5-methyl-4-oxo-7-propyl-3,4-dihydroimidazo[5,1-f][1,2,4]triazin-2-yl)phenyl)sulfonyl)piperidin-4-yl)-3-hydroxypropyl nitrate]: 0.3 nM.

The record behind these values is patent publication US12502393B2, “Dual mode of action soluble guanylate cyclase activators and phosphodiesterase inhibitors and uses thereof” (TOPADUR PHARMA AG, priority 2018, dated 2025).
